Results: patent US7348330B2, “1-azabicyclo [2,2,2] octan-3-one derivatives” (Aprea AB, priority 2000, dated 2008)

What was measured:
H1299-His-175 cells = test: Western blot of p53 target genes p21 and MDM2; format: cell-based, human
14 mutant p53 proteins = test: Band shift assays, extracts of tumor cell lines; format: biochemical, human; conditions: of 14 mutants tested
Description: (§1) The GST-p53 proteins were prepared as described (Selivanova et al., 1997). Band shift assays were performed in binding buffer containing 100 mM HEPES pH 7.5, 50 mM KCl , 1 mg/ml BSA, 0.1% Triton X-100, 2 mM MgCl2 and 1 mM DTT essentially as in (Selivanova et al., 1996).
The compound MIRA-1 restored the DNA binding of 3 out of 14 mutant p53 proteins (Table III).

[1] = target: T1, GST-wild type p53 protein (Homo sapiens, UniProt P04637); test: ELISA with conformation-specific antibodies, recombinant protein; format: biochemical
T1 construct: made in house
T1 sequence (P04637 whole entry): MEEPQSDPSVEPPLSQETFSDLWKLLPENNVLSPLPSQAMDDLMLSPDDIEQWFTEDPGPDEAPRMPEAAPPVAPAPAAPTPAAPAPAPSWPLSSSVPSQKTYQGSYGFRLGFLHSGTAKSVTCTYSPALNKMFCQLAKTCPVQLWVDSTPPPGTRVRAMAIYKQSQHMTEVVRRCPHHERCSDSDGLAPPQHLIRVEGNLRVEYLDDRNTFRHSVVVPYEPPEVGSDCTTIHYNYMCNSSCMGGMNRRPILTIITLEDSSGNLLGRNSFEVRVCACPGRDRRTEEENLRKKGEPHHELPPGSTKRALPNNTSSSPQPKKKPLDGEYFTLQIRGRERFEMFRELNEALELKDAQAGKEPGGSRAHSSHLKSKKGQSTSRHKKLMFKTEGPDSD
Description: 20 ng of GST-wtp53, GST-mtp53-175 and GST-mtp53-248 were heated at 37° C. for 30 min or kept on ice. The procedure was performed with or without tested compounds. The ELISA analyses were done as described by (Foster et al., 1999). Briefly, after the treatment, samples were diluted with coating buffer (150 mM KCL, 25 mM HEPES) supplemented with 10 mM DTT. The whole mixture was apply to ELISA plates (MaxiSorp, Nunc) and incubated at +4° C. for 35 min. The wells were washed with coating buffer. The wells were blocked by 5% skim milk in PBS by incubating at +4° C. for 1 h. […] Samples were incubated at +4° C. for 30 min. Wells were rinsed twice with PBS. After that, a secondary antibody (anti-mouse, conjugated with horse radish peroxidase) was incubated with samples at +4° C. for 30 min. Then plates were washed 5 times with PBS and a peroxidase substrate was added. An absorbance at λ405 nm was monitored by ELISA reader.

SKOV-His-175 cells = test: WST-1 proliferation assay; format: cell-based, human; conditions: for increase in cell survival by cycloheximide pretreatment: cycloheximide before addition of compound
Description: FIG. 13B, PRIMA-3 reactivated the hot spot p53 mutant Trp-248 in H1299 lung adenocarcinoma cells. FIG. 13C, MIRA-2 and MIRA-3 reactivated His-175 mutant of p53 in SKOV cells. […] FIG. 13G, PRIMA-2 reactivated mutant p53 His-273 in SKOV cells.
(§2) Saos-2-His-273 cell line stably transfected with construct allowing expression of mutant His-273 p53 in a tetracycline-dependent manner was used for screening (Selivanova et al., 1997). p53 expression was inhibited by incubation of cells with doxycycline (5 μg/ml). Cells were grown in 96-well plates at a density of 3000 cells per well with or without doxycycline and treated with 25 μM of the compounds from the NCI library of low molecular weight (LMW) compounds. After 48 hours of incubation the proliferative cell reagent WST-1 (Roche) was added to the cells. The degree of WST-1 reduction, which reflects cell viability, was measured by microplate reader at λ490 nm according to the manufacturer (Roche).
The cycloheximide treatment renders SKOV-His-175 resistant to MIRA-1 as well, resulting in about 4 fold increase in cell survival. […] In addition, SKOV-His-175 cells were at least 3 fold more sensitive to treatment with MIRA-1 in comparison with SKOV-His-175-22/23 cells.
Growth suppression by analogs in the presence or absence of p53 expression was measured as described in FIG. 1. […] Analogs of MIRA-1 induced mutant p53-dependent growth suppression in SKOV-His-175 cells (FIG. 13C).

Saos-2-His-273 cells [2] = test: FACS analysis of apoptosis (sub-G1, propidium iodide); format: cell-based, human; conditions: for p53 dependence of apoptosis induction: cells grown in presence or absence of doxycyclin; for time after treatment at which apoptosis/cell death is evident: data not shown
Description: Induction of apoptosis was determined by FACS analysis of ethanol fixed cells stained with propidium iodide (PI) as percentage of a sub-G1 population. […] The percentage of dead cells in non-treated cultures and in controls treated with caspase inhibitors only was subtracted. […] Hoechst staining was used to stain cell nuclei. […] The percentage of apoptotic cells was measured by FACS analysis as it was described in Figure.
Cells were placed on 12-well plate at a density of 30000/cm^2 and treated with compounds. After 48 h incubation cells were harvested by trypsinization, fixed with 70% ethanol, treated with RNase A (0.25 mg/ml) and stained with propidium iodide (0.02 mg/ml). Samples were analyzed on a Becton Dickinson FACScan. Data were analyzed by the CellQuest software, version 3.2.1.
Induction of cell death was determined by FACS analysis of ethanol-fixed cells stained with propidium iodide (PI) as percentage of sub-G1 population.

[3] = tested on: HCT116 colon carcinoma cells that carry wild type p53; test: Western blot of p53 target genes p21 and MDM2; format: cell-based
Saos-2-His-273 cells [4] = test: WST-1 growth suppression assay; format: cell-based, human
Description: as §2
as §2, with “1997).” for “1997). p53 expression was inhibited by incubation of cells with doxycycline (5 μg/ml).”, “doxycycline. The treatment was done at a concentration of” for “doxycycline and treated with”, “each chemical” for “the compounds”, “is proportional to the” for “reflects”, “by a” for “by”
Saos-2-His-273 cells grown in the presence or absence of doxycycline and parental Saos-2 cells were treated with the structural analogs and analyzed as described above. The effect of structural analogs on cell growth was tested using different concentrations of the compounds, ranging from 2.5 to 25 μM. Compounds MIRA-2, MIRA-3 and PRIMA-2, PRIMA-3 were identified that were able to suppress the growth of Saos-2-His-273 cells expressing mutant p53 (tet−). […] In addition, compounds MIRA-2 and MIRA-3 suppressed the growth of cells in a mutant p53-dependent manner at 10 μM concentration, in contrast to 25 μM of compound MIRA-1 required for the selective effect.

[5] = target: T1, GST-wild type p53 protein; test: Band shift assay, heat-inactivated protein; format: biochemical; conditions: protein inactivated at 37° C. for 30 min
Description: Lane 3, inactivation of DNA binding of wtp53 by heating.
as §1
Substitution of arginin at position 175 causes a gross unfolding of the DNA binding core domain of p53. Therefore, the restoration of the DNA binding of this mutant was regarded as an exceptionally difficult task.

[6] = absence of mutant p53 expression
[7] = cells expressing mutant p53, PRIMA-1 25 μM, MIRA-1 10 μM

Structure (SMILES)	induction of MDM2 and p21 (H1299-His-175 cells; [6])	induction of MDM2 and p21 (H1299-His-175 cells; [7])	mutant p53 proteins whose specific DNA binding was restored (14 mutant p53 proteins)	increase in the PAb1620+ fraction [1]	reduction in PAb240+ fraction [1]	sensitivity of SKOV-His-175 cells in comparison with SKOV-His-175-22/23 cells (SKOV-His-175 cells)	increase in cell survival by cycloheximide pretreatment (SKOV-His-175 cells)	induction of apoptosis (Saos-2-His-273 cells [2]; 48 hours, no doxycycline)	p53 dependence of apoptosis induction (Saos-2-His-273 cells [2])	time after treatment at which apoptosis/cell death is evident (Saos-2-His-273 cells [2]) [h]	MDM2 and p21 protein levels [3]	concentration at which growth of mutant p53 containing cells is selectively suppressed (Saos-2-His-273 cells [4]; tet− vs tet+ and parental Saos-2, 48 hours, 2.5 to 25 μM tested) [µM]	restoration of specific DNA binding [5]	DO-1+ fraction [1]	induction of apoptosis (Saos-2-His-273 cells [2]; 50, 75 and 125 µM, mutant p53 expressed)	growth of cells expressing mutant p53 (growth curves) (Saos-2-His-273 cells [4]; mutant p53 expressed)	growth of cells in the absence of mutant p53 expression (Saos-2-His-273 cells [4]; no mutant p53 expression)
CCC(=O)OCN1C(=O)C=CC1=O [MIRA-1]	did not cause any induction	solid induction of both MDM2 and p21	3 out of 14	About 40%	~20%	at least 3 fold	about 4 fold	apoptosis was induced	occurred only in the presence of p53 expression	6 to 12	did not cause any significant changes	25	able to restore	–	–	–	–
O=C1C2CCN(CC2)C1(CO)CO [PRIMA-1, 2,2-bis(hydroxymethyl)-1-azabicyclo[2,2,2]octan-3-one]	did not cause any induction	solid induction of both MDM2 and p21	13 out of 14	40%	corresponding decrease	–	4 fold	–	occurred only in the presence of p53 expression	48	did not cause any significant changes	–	able to restore	remained unchanged	apoptosis was induced	completely inhibited growth	minor reduction in growth rate
